Results: patent US6639089B2, “Anticancer agents, perfumes or foods and drinks” (Soda Aromatic Co., Ltd., priority 2001, dated 2003)
Where two headings read alike, the source gives them in different places.

Key:
[1] = test system: melanoma cell line B16BL6; experiment: Cancer cell mobility test (cancer invasion inhibitory action), Boyden double chamber with Matrigel/fibronectin; format: cell-based; conditions: for Tumor Invasion (cell/mm^2) 5 μM / Tumor Invasion (cell/mm^2) 20 μM: administered to cells 18 hours in advance, B16BL6, counted after 3.5 hours; for activity at 20 µM: Mus musculus
Protocol: (§1) A Boyden double chamber was used, in which a porous film with 8 μm pores was placed, the upper surface of the porous film being coated with Matrigel as a reconstructed membrane, the lower surface of the porous film being coated with fibronectin as an extracellular matrix. In the upper compartment of the chamber, 200,000 cells of melanoma cell line B16BL6, a type of skin cancer, were inoculated, and after 3.5 hours, Diff Quick staining was performed and the number of invasive cancer cells invading the lower compartment was counted using a CCD camera/multibioscanner. The compounds of the present invention were administered to cancer cells for 18 hours in advance at amounts of 5 μM and 20 μM.

[2] = test system: human fibrosarcoma cell line HT1080; experiment: as above; format: cell-based; conditions: for Tumor Invasion (cell/mm^2) 5 μM / Tumor Invasion (cell/mm^2) 10 μM: administered to cells 18 hours in advance, HT1080, counted after 3.5 hours; for Cell Invasion Rate at 10 μM (%): relative to no addition = 100%, lower value = higher inhibition
Protocol: as §1, with “of human fibrosarcoma” for “of melanoma”, “line HT1080” for “line B16BL6, a type of skin cancer,”, “and 10” for “and 20”

[3] = test system: Rat spontaneous mammary cancer cells (SST-2); experiment: Cancer metastasis inhibitory action test (in vivo), lung metastasis of subcutaneously implanted SST-2; conditions: day 7 pre-implant to day 34 post-implant; for Average number of metastatic colonies formed: lung, after 35 days; for Lung weight / Subcutaneous tumor weight: sacrifice after 35 days
Protocol: Rat spontaneous mammary cancer cells (SST-2) (1×10^5 cells) were subcutaneously implanted in the backs of Wister male rats (5 rats for each group). After 35 days, the rats were sacrificed, and the lung weight and the number of colonies formed were measured to observe the extent of lung metastasis of the SST-2. With respect to the groups to which 5-cyclohexadecen-1-one as the compound of the present invention was administered, 20 mg/rat and 5 mg/rat were orally administered and subcutaneously injected, from day 7 pre-implant to day 34 post-implant, and the subcutaneous tumor weight, the lung weight, and the number of metastatic colonies formed were compared with those of the control group, to which no treatment was provided.

[4] = test system: adenocarcinoma 755 cell line; experiment: Test for action of killing cancer (in vivo), subcutaneous tumor weight; parameters: species or system mice; conditions: subcutaneous injection daily at 10 mg/kg for 5 days; tumors excised day 10 post-implant; control group 9.0 g
Protocol: In the backs of 6-week-old mice (first filial hybrid of C57BL/6 and DBA/2), 10^6 cells of adenocarcinoma 755 cell line were subcutaneously implanted. After 24 hours, a solution in which each sample was suspended, at a concentration of 50 mg/ml, in a physiological saline solution of 0.25% surfactant Nikkol HCO-60 (manufactured by Nikko Chemicals Co., Ltd.; polyoxyethylene (40) hydrogenated castor oil), was subcutaneously injected into a group of 8 mice, daily at 10 mg/kg for 5 days. On day 10 post-implant of adenocarcinoma 755 cells, the mice were sacrificed and tumors were excised. The average weight (g) of the tumors was obtained. As a result, the average weight of the control group was 9.0 g, while the average weight of the group to which 5-cyclohexadecen-1-one had been administered was as small as 1.9 g. The significant action of killing cancer was thus confirmed.

[5] = test system: B-16 melanoma cell line BL; experiment: Cancer metastasis inhibitory action test (in vivo), lung metastasis after caudal vein injection of melanoma cells; conditions: lungs on day 14, mean of 6 mice
Protocol: Cancer cells of B-16 melanoma cell line BL were incubated in a 5% CO2 incubator using an MEM culture medium (containing 10% FBS), and the individual cells were dissociated with a 2.5% trypsin solution. The melanoma cells were injected into the caudal vein of BDF1 mice (SPF). The number of cells injected was 2×10^5/0.2 ml/mouse. As test compounds for cancer metastasis inhibitory action, 15-hydroxypentadecanoic acid, 15-pentadecanolide, and 5-cyclohexadecen-1-one were used, and as a positive control compound, Mitomycin Kyowa S (manufactured by Kyowa Hakko Kokyo Co., Ltd.) was used. The test compounds and the positive control compound were dissolved or suspended in olive oil and administered as shown in Table 5 below. (In the case of intravenous administration, micellisation was performed using Tween before administration.) The dosage of the test compounds was 100 mg/kg each time in the case of peritoneal administration, and 10 mg/kg each time in the case of intravenous administration. The dosage of Mitomycin Kyowa S as the positive control compound was 0.5 mg/kg each time by peritoneal administration.
From day 10 post-implant onward, metastatic cancer cells of mice in the satellite group were observed, and on day 14 when the size of the cells was believed to be suitable for evaluation, the mice were sacrificed and the lungs were enucleated. The number of metastatic cancer cells was then counted.

[6] = test system: melanoma cell line B16BL6; conditions: comparison derivatives of L-ascorbic acid (JP-A-8-291075); cited from earlier work
[7] = Subcutaneous injection 5 mg/rat
[8] = Subcutaneous injection 20 mg/rat
[9] = Peritoneal administration, 100 mg/kg each time
[10] = B16-BL6, 20 μM, relative to no addition = 100%, lower value = higher inhibition, read-out: Cell Invasion Rate at 20 μM (%)
[11] = B16-BL6, read-out: Cell Invasion Rate at 20 μM (%)

Molecule | Tumor Invasion (cell/mm^2) 5 μM [1] [cell/mm^2] | Tumor Invasion (cell/mm^2) 20 μM ([1]; 20 μM) [cell/mm^2] | Tumor Invasion (cell/mm^2) 5 μM [2] [cell/mm^2] | Tumor Invasion (cell/mm^2) 10 μM [2] [cell/mm^2] | Cell Invasion Rate at 10 μM (%) [2] [%] | activity at 20 µM [1, 10] [%] | further results
11(12)-pentadecen-15-olide | 234 ± 17 | 146 ± 31 | – | – | – | – | Cell Invasion Rate at 20 μM (%) ([1]; 20 μM, relative to no addition = 100%, lower value = higher inhibition): 29.0%
12-oxahexadecen-16-olide | – | – | 218 | 109 | 20.8 | – | –
O=C1CCCC=CCCCCCCCCCC1 [5-cyclohexadecen-1-one] | 285 ± 36 | 143 ± 14 | – | – | – | 31.6 | Average number of metastatic colonies formed ([3]; Oral administration 5 mg/rat): 28.4; Lung weight ([3]; Oral administration 5 mg/rat): 1.5 g; Subcutaneous tumor weight ([3]; Oral administration 5 mg/rat): 46.4 g; Average number of metastatic colonies formed ([3]; Oral administration 20 mg/rat): 17.5; Lung weight ([3]; Oral administration 20 mg/rat): 1.4 g; Subcutaneous tumor weight ([3]; Oral administration 20 mg/rat): 44.7 g; Average number of metastatic colonies formed [3, 7]: 15.7; Lung weight [3, 7]: 1.3 g; Subcutaneous tumor weight [3, 7]: 43.5 g; Average number of metastatic colonies formed [3, 8]: 10.9; Lung weight [3, 8]: 1.1 g; Subcutaneous tumor weight [3, 8]: 42.0 g; average weight of the tumors [4]: 1.9 g; Number of metastatic cells [5, 9]: 35.6
CCCCCCCCCCCC1CCCC(=O)O1 (centres unmarked) [5-hexadecanolide] | – | – | 144 | 111 | 27.5 | – | –
O=C1CCCCCCCC=CCCCCCCO1 [9-hexadecen-16-olide] | 257 ± 42 | 113 ± 19 | – | – | – | 22.5 | –
O=C1CCCCCCCCCCCO1 [12-dodecanolide] | 405 ± 38 | 461 ± 67 | – | – | – | 91.7 | –
O=C(O)CCCCCCCCCCCO [12-hydroxydodecanoic acid] | 324 ± 23 | 246 ± 30 | – | – | – | – | activity at 20 µM [1, 11]: 48.9%
O=C(O)CCCCCCCCCCC(=O)CCCO [15-hydroxy-12-oxopentadecanoic acid] | 268 ± 34 | 119 ± 25 | – | – | – | 23.7 | –
O=C(O)CCCCCCCCCCCCCCO [15-hydroxypentadecanoic acid] | 289 ± 45 | 135 ± 11 | – | – | – | 26.8 | Number of metastatic cells [5, 9]: 78.0
O=C1CCCCCCCCCCCCCCO1 [15-pentadecanolide] | 386 ± 26 | 324 ± 27 | – | – | – | 64.4 | Number of metastatic cells ([5]; Intravenous administration, 10 mg/kg each time, 3 times on day of implantation): 52.2; Number of metastatic cells [5, 9]: 134.3
O=C1CCCCCCCCCCCCCCCO1 [16-hexadecanolide] | 370 ± 62 | 293 ± 43 | – | – | – | 58.3 | –
O=C(O)CCCCCCCCCCCC(=O)CCCO [16-hydroxy-13-oxohexadecanoic acid] | – | – | 214 | 121 | 31.8 | – | –
O=C(O)CCCCCCCCCCCCCCCO [16-hydroxyhexadecanoic acid] | 301 ± 47 | 199 ± 32 | – | – | – | – | activity at 20 µM [1, 11]: 39.6%
O=C1CCCCCCCCCCCCCC1 [Cyclopentadecanone] | 459 ± 39 | 491 ± 35 | – | – | – | – | activity at 20 µM [1, 11]: 109%
O=C1CCCCCCCCCCCC(=O)OCCO1 [Ethylene tridecanedioate] | – | – | 226 | 84 | 16.0 | – | –
O=C1O[C@H]([C@@H](O)CO)C(O)=C1OP(=O)(O)O [L-ascorbyl 2-phosphate] | – | – | – | – | – | – | concentration at which a 25% cancer cell invasion inhibition was obtained [6]: approximately 280 μM
CCCCCCCCCCCCCCCC(=O)OC[C@H](O)[C@H]1OC(=O)C(O)=C1O [L-ascorbyl 6-O-palmitate] | – | – | – | – | – | – | concentration at which a 25% cancer cell invasion inhibition was obtained [6]: approximately 110 μM
CNC(=O)[C@@H](NC(=O)[C@H](CC(C)C)[C@H](O)C(=O)NO)C(C)(C)C [Marimastat, reference compound] | – | – | 269 | 172 | 42.6 | – | –
CO[C@@]12[C@H](COC(N)=O)C3=C(C(=O)C(C)=C(N)C3=O)N1C[C@@H]1N[C@@H]12 [Mitomycin, reference compound] | – | – | – | – | – | – | Number of metastatic cells ([5]; Peritoneal administration, 0.5 mg/kg each time, 3 times on day of implantation): 21.2
CCOC(=O)CCCCCCCCCC=CCCCO [ethyl-15-hydroxy-11(12)-pentadecenoate] | – | – | 129 | 106 | 28.6 | – | –
